According to patent publication US20230346741A1, “ERIODICTYOL COMPOSITIONS AND METHODS” (CAS PROPERTIES, LLC, priority 2022, published 2023):

Legend:
[1] = system: IL-1β secretion, human SV40 microglia cells; test: IL-1β secretion by LPS-stimulated human SV40 microglia after pretreatment; type: cell-based; conditions: 50 micromolar concentration; pretreated two hours, then LPS stimulation; FIG. 2
Text: Cultured human SV40 microglia cells were pretreated with eriodictyol (Erio) or nobiletin (Nobi) for two hours to determine the degree to which eriodictyol and nobiletin inhibits the secretion of the proinflammatory cytokine interleukin-1β(IL-1β) followed by stimulation by bacteria lipopolysaccharide (LPS).

[2] = Treatment of a subject with long-COVID syndrome (case report); type: in vivo, human; conditions: 60 mg per day (2 x 30 mg capsules) for three months; one subject
Experimental: A subject having a diagnosis of long-COVID syndrome was administered 60 milligrams (mg) eriodictyol (30 mg/vegetarian capsule; 2 capsules daily) per day for three months. The subject reported an over 80% reduction in long-covid symptoms that included a 80% reduction in fatigue, brain fog, difficulty concentrating, difficulty remembering, difficulty finding the right words, and difficulty multi-tasking.

Chikungunya virus = test: Plaque reduction in human microglia cells infected with Chikungunya virus; conditions: 100 micromolar concentration; FIG. 1

| Structure (SMILES) | inhibition of IL-1β secretion compared with luteolin and methoxyluteolin [1] | reduction in fatigue, brain fog, difficulty concentrating, remembering, finding the right words and multi-tasking (subject-reported) [2] [%] | reduction in long-covid symptoms (subject-reported) [2] | potency of plaque inhibition compared with nobiletin (Chikungunya virus) |
| --- | --- | --- | --- | --- |
| O=C1C[C@@H](c2ccc(O)c(O)c2)Oc2cc(O)cc(O)c21 [eriodictyol, (2S)-2-(3,4-Dihydroxyphenyl)-5,7-dihydroxy-2,3-dihydro-4H-1-benzopyran-4-one] | more potent inhibitors of IL-1β secretion as compared to luteolin (Lut) and methoxyluteolin (Methlut) | 80 | over 80% | slightly more potent inhibitor than nobiletin |
| COc1ccc(-c2cc(=O)c3c(OC)c(OC)c(OC)c(OC)c3o2)cc1OC [nobiletin, reference compound] | more potent inhibitors of IL-1β secretion as compared to luteolin (Lut) and methoxyluteolin (Methlut) |  |  |  |
